Data as given in patent publication US7714151B2, “Aminated isoflavonoid derivatives and uses thereof” (Novogen Research Pty Ltd, priority 2002, dated 2010).
Where two headings read alike, the source gives them in different places.

How the values were obtained:
[1] = system: MDA-MB-468 (ER negative breast Ca); assay: Cell cytotoxicity analysis (MTT), MDA-MB-468; assay type: cell-based; conditions: Homo sapiens, 120 h, MDA-MB-468, five days
Source text: (§1) The method of Alley et al. (1988) was followed. Briefly, prior to cytotoxicity screening a growth curve was constructed for each tumour line to be screened to determine growth kinetics, optimal seeding density to yield logarithmic growth over five days, and the corresponding lag time. Spent culture medium was aspirated from a sub-confluent adherent monolayer culture (T-75), the cells trypsinised and resuspended in a minimal volume of culture medium. After counting cells, a 96-well plate was seeded at an appropriate density (100 μl) to yield optimal growth parameters and the plate was then incubated at 37° C. under 5% CO2. After the pre-determined lag-time the plate was treated with either vehicle (negative control) or serial dilutions of the test compound prepared in culture medium, and then incubated for a further five days. MTT (0.5 mg/ml) prepared in PBS was added to all wells and incubated at 37° C. for ˜3 hr. Spent medium was then carefully aspirated and DMSO (150 μt) was added to solubilise cells and the reduced formazan. Absorbance was then read on a SpectraMax plate reader at 570 nm and viable cells in treated plates were expressed as a percentage of cells in control plates.

[2] = system: DU145 (AR negative prostate Ca); assay: Cell cytotoxicity analysis (MTT), DU145; assay type: cell-based; conditions: Homo sapiens
Source text: as §1

[3] = system: NCI-H460 (large cell lung Ca); assay: Cell cytotoxicity analysis (MTT), NCI-H460; assay type: cell-based; conditions: Homo sapiens
Source text: as §1

[4] = system: all cell lines tested; assay: Cell cytotoxicity analysis (MTT), statements over the cell lines tested; assay type: cell-based, human; conditions: for overall cell killing activity against all cell lines tested: comparison of Cpd. 1, 2 and 3
Source text: as §1

[5] = system: testosterone-induced LNCaP proliferation; assay: Androgen inhibition study: testosterone-induced LNCaP proliferation; assay type: cell-based, human; conditions: for IC50: Homo sapiens, LNCaP; for fold better than Cpd. 1 at inhibiting testosterone-induced proliferation: relative to Cpd. 1
Experimental: The method of Negri-Cesi and Motta (1994) and Negri-Cesi et al. (1999) was followed. Briefly, LNCaP cells were cultured in RPMI supplemented with 10% fetal calf serum and 2 mM L-glutamine at 37° C. under 5% CO2. At day 0 a subconfluent LNCaP culture flask (80%) were harvested by trypsinisation, washed, resuspended in RPMI media completed with charcoal stripped fetal calf serum (RPMIi) and seeded into 12 well plates at 30,000 cells per well (15,000 cells/mL). The plates were cultured at 37° C. with 5% CO2 for 48 hours. On day 2, spent media was carefully aspirated from all plates and then replenished with 2 ml RPMIi containing either testosterone (0.5 pM) as positive control, testosterone plus finasteride (1 uM) as inhibitor control and vehicle as growth control (equivalent concentration of DMSO). Test plates were treated as described above; only serial dilutions of test compounds prepared in RPMIi were used. Concentrations of test compound were chosen based on their cytotoxicity profile as determined in the cell cytotoxicity analysis methods section above i.e. the top concentration used in the LNCaP proliferation assay was determined as the concentration at which cells first appear close to 100% viable along the cytotoxicity curve. This concentration was chosen to ensure that any inhibition of proliferation imparted by the test agent was due to the inhibition of 5′AR and not due to direct killing of the cells. It is important not to disturb cell monolayer during the addition of treatments. On days 5 and 8 the process followed on day 2 was repeated for all plates. On day 11 spent media was aspirated from all wells, cells were washed gently with PBS (500 μl), trypsinised and the cells in each well counted using a haemocytometer. The average cell count and standard deviation was calculated and the result expressed as the % inhibition of testosterone-induced proliferation in comparison with vehicle control.

[6] = system: COX; assay: COX inhibition screening assay in LPS-stimulated monocytes (prostaglandin radioimmunoassay); assay type: cell-based; conditions: 10 μM, human monocytes
Experimental: (§2) Human buffy coats were obtained from the Red Cross Blood Bank. Buffy coat (50 ml) was diluted 1:2 with sterile phosphate buffered saline (PBS), overlayed onto Lymphoprep density gradient medium and centrifuged at 800 g for 20 min. The mononuclear cell (MNC) layer was removed and washed with PBS and monocyte enriched cells were prepared from MNC by counter-current centrifugal elutriation. Monocytes were then resuspended in RPMI tissue culture medium with 10% foetal calf serum at 1.5×10^6 cells/ml. Test analogues were prepared in DMSO and incubated with monocytes at 37° for 30 min at either 10 or 100 μM. After the 30 min pre-incubation, bacterial lipopolysaccharide (LPS) was added (200 ng/ml) and cells were incubated for a further 18 h at 37° in 5% CO2. After centrifugation, cell-free supernatants were then removed and assayed for either prostaglandin or thromboxane production, as determined by radioimmunoassay. Because TXA2 is labile in aqueous medium, TXB2, the stable hydrolysis product of TXA2, was measured. For each dose (0, 10, 100 μM), incubations were performed in triplicate. Results are expressed as mean±SD, n=3. ANOVA followed by Newman-Keuls multiple comparisons test was used to examine differences between doses and the control values.

[7] = system: PC3 (AR negative prostate Ca); assay: Cell cytotoxicity analysis (MTT), PC3; assay type: cell-based; conditions: Homo sapiens, 120 h, PC3, five days
Source text: as §1

[8] = molecular target: T1, thromboxane synthase (Homo sapiens, UniProt P24557); assay: Thromboxane synthase inhibition screening assay in LPS-stimulated monocytes (TXB2 radioimmunoassay); assay type: cell-based
T1 construct: endogenous in cells; host or cells: human peripheral blood monocytes (elutriated from buffy coat), LPS-stimulated
T1 sequence (P24557 1-533): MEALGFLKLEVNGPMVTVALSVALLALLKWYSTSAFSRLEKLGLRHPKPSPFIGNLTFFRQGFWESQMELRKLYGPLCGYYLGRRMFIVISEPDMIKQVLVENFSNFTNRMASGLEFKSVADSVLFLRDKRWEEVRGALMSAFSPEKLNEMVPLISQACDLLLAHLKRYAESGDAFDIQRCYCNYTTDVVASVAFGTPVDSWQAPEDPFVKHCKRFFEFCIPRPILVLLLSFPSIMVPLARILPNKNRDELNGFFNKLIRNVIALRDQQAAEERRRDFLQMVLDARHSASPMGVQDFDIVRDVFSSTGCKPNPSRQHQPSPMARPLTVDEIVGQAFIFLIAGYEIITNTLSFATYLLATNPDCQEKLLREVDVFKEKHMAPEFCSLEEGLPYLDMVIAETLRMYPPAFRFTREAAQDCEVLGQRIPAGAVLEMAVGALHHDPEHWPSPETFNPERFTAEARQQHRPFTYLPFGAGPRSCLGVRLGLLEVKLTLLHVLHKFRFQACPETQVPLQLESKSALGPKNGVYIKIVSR
Experimental: as §2

[9] = system: LNCaP (AR positive Prostate Ca); assay: Cell cytotoxicity analysis (MTT), LNCaP; assay type: cell-based; conditions: Homo sapiens
Source text: as §1

[10] = 120 h, DU-145, five days, MTT, read-out: Cytotoxicity DU-145 Avg.
[11] = DU-145, read-out: IC50 against DU-145
[12] = 120 h, NCI-H460, five days, MTT, read-out: Cytotoxicity NCI-H460 Avg.
[13] = read-out: IC50 inhibition of testosterone-induced LNCaP proliferation
[14] = read-out: IC50 inhibition of testosterone-induced proliferation
[15] = 120 h, LNCaP, five days, MTT, read-out: Cytotoxicity LNCaP Avg.

| SMILES | IC50 [1] [µM] | IC50 [2, 10] [µM] | IC50 [2, 11] [µM] | IC50 [3, 12] [µM] | IC50 ([4]; Homo sapiens, cell lines other than LNCaP and DU-145, read-out: Modest activity against the other cell lines tested) [µM] | IC50 [5, 13] [nM] | IC50 [5, 14] [nM] | inhibition of COX activity [6] [%] | IC50 [7] [µM] | inhibition at 10 µM [8] [%] | IC50 [9, 15] [µM] | IC50 ([9]; read-out: IC50 against LNCaP) [µM] | overall cell killing activity against all cell lines tested [4] | IC50 ([5]; read-out: IC50 inhibition of testosterone-induced proliferation (nM)) [nM] | fold better than Cpd. 1 at inhibiting testosterone-induced proliferation [5] [fold] | IC50 ([3]; NCI-H460, read-out: activity against NCI-H460) [µM] | blocking of testosterone-induced proliferation ([5]; 1 μM, inhibitor control) |
| --- | --- | --- | --- | --- | --- | --- | --- | --- | --- | --- | --- | --- | --- | --- | --- | --- | --- |
| Oc1ccc(C2COc3cc(O)ccc3C2=NNc2ccccc2)cc1 (stereo not shown) [Cpd. 1] | 34.9 | 13.8 | 13.8 | 27.6 | > 20 | 2250 | 2250 | 100 | 33.9 | 33 | 16.2 | 16.2 |  |  |  |  |  |
| O=[N+]([O-])c1ccc(NN=C2c3ccc(O)cc3OCC2c2ccc(O)cc2)cc1 (stereo not shown) [Cpd. 2] | 26.1 | 46 |  | 32.7 |  | < 35 |  | 77 | 44.8 | 27 | 50.9 |  | lowest activity | < 37 | ~60 |  |  |
| Cc1ccc(NN=C2c3ccc(O)cc3OCC2c2ccc(O)cc2)cc1 (stereo not shown) [Cpd. 3] | 22.4 | 19.1 | 19.2 |  |  | 680 | 680 | 100 | 27.9 | 60 | 16.2 | 16.3 | best overall cell killing activity |  | 3 | 13.3 |  |
| CC(C)(C)NC(=O)[C@H]1CC[C@H]2[C@@H]3CC[C@H]4NC(=O)C=C[C@]4(C)[C@H]3CC[C@]12C [finasteride, reference compound] |  |  |  |  |  |  |  |  |  |  |  |  |  |  |  |  | potently blocked |
